Each block holds one compound with its values, some of them ahead of it.
Legend:
MMP-14 = molecular target: T1, MMP-14 (Homo sapiens, UniProt P50281); experiment: Fluorometric enzyme inhibition assay on MMP-14 catalytic domain; type: biochemical; settings: mean ± SD of three independent experiments
T1 construct: Recombinant human MMP-14 catalytic domain; gift from Prof; Gillian Murphy (Department of Oncology, University of Cambridge, UK)
Description: (§1) Recombinant human MMP-14 catalytic domain was a kind gift from Prof. Gillian Murphy (Department of Oncology, University of Cambridge, UK). Pro-MMP-1, pro-MMP-2, pro-MMP-9, and pro-MMP-13 were purchased from Merck Millipore (Burlington, MA, USA). p-Aminophenylmercuric acetate (APMA) was from Sigma-Aldrich (St. Louis, MO, USA).
(§2) For assay measurements, the purchased compound stock solutions (10 mM in DMSO) were further diluted for each MMP in the fluorometric assay buffer (FAB: Tris 50 mM, pH = 7.5, NaCl 150 mM, CaCl2 10 mM, Brij 35 0.05%, and DMSO 1%), following the protocol already reported. […] The assays were performed in triplicate with a total volume of 200 μL per well in 96-well microtitre plates (Corning, black, NBS, Turin, Italy). The MMP inhibition activity was expressed in relative fluorescent units (RFU). The percentage of inhibition was calculated from control reactions without the inhibitor. The inhibitory effect of the tested compounds was routinely estimated at a concentration of 100 μM on MMP-13. […] Results were analyzed using SoftMax Pro software version 5.4.3 (Molecular Devices, Sunnyvale, CA, USA) and Prism Software version 5.0 (GraphPad Software, Inc., La Jolla, CA, USA).

MMP-1 = molecular target: T2, MMP-1 (Homo sapiens, UniProt P03956); experiment: Fluorometric enzyme inhibition assay on MMP-1
T2 sequence (P03956 100-469): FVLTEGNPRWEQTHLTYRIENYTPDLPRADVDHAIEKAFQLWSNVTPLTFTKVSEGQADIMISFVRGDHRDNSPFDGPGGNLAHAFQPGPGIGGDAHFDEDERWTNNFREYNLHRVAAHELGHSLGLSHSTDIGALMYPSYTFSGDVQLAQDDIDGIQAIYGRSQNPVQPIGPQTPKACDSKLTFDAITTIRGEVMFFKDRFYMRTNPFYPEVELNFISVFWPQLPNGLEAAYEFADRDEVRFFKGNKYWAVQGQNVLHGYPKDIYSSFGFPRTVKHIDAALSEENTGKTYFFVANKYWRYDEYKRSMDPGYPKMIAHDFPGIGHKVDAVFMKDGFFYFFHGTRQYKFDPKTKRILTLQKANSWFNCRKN

MMP-2 = molecular target: T3, MMP-2 (Homo sapiens, UniProt P08253); experiment: Fluorometric enzyme inhibition assay on MMP-2
T3 sequence (P08253 110-660): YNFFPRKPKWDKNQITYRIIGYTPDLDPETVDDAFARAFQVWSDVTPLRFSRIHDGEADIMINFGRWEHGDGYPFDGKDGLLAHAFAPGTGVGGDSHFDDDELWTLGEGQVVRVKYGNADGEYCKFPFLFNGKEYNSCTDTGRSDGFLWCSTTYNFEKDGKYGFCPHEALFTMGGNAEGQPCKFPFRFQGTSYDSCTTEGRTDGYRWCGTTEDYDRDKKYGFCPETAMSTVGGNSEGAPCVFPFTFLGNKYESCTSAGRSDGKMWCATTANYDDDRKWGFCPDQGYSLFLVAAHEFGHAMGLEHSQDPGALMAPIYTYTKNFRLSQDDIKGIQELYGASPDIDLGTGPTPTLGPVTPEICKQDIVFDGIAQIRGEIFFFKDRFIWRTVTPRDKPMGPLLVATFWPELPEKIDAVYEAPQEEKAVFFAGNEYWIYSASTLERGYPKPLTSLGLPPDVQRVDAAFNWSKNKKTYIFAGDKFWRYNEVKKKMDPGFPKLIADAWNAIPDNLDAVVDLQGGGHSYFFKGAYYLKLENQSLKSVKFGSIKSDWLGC

MMP-9 = MMP-9 (Homo sapiens, UniProt P14780); experiment: Fluorometric enzyme inhibition assay on MMP-9
Chain of MMP-9 (P14780 107-707 limits assumed): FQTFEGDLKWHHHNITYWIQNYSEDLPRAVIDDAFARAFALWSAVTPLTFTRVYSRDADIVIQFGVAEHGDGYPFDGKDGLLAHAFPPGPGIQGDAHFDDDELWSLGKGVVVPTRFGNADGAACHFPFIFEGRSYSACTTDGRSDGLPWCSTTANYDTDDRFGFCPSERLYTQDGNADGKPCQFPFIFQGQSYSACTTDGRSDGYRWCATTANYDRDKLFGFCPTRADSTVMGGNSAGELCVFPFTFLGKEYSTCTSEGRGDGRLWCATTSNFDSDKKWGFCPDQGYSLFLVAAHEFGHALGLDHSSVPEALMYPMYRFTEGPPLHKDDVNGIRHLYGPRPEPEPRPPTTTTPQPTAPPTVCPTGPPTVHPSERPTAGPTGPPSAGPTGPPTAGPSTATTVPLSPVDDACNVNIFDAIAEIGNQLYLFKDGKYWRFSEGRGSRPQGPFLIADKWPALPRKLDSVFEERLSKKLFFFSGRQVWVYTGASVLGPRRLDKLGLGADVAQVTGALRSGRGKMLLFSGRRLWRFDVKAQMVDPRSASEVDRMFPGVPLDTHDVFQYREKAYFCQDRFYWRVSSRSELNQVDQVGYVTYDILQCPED

MMP-13 = molecular target: T4, MMP-13 (Homo sapiens, UniProt P45452); experiment: Fluorometric enzyme inhibition assay on MMP-13; type: biochemical; settings: mean ± SD of three independent experiments
T4 construct: purchased Merck Millipore (Burlington, MA, USA)
Text: ARP100 [26], a hydroxamate-based MMP inhibitor previously developed by our research group, was used in the same assay conditions as the reference compound.
as §1, §2

melting point: 292 to 295 °C
Structure (SMILES): C/C(=N\NC(=O)Cc1ccc(C(=O)O)cc1)c1ccc(NC(=O)c2ccc(Br)o2)cc1 [Compound 13h, (E)-4-(2-(2-(1-(4-(5-bromofuran-2-carboxamido)phenyl)ethylidene)hydrazineyl)-2-oxoethyl)benzoic acid]

melting point: 245 to 248 °C
Structure (SMILES): O=C(Cc1ccc(-c2nnn[nH]2)cc1)N/N=C/c1ccc(CNC(=O)c2ccc(Br)o2)cc1 [Compound 13o, (E)-N-(4-((2-(2-(4-(1H-tetrazol-5-yl)phenyl)acetyl)hydrazineylidene)methyl)benzyl)-5-bromofuran-2-carboxamide]

IC50 (MMP-14): > 200 µM
IC50 (MMP-1): 177 ± 20 µM
IC50 (MMP-2): 3.6 ± 0.4 µM
IC50 (MMP-9): 50 ± 3.2 µM
Structure (SMILES): O=C(Cc1ccc(C(=O)O)cc1)N/N=C/c1ccc(CNC(=O)c2ccc(Br)o2)cc1 [Compound 13m, (E)-4-(2-(2-(4-((5-bromofuran-2-carboxamido)methyl)benzylidene)hydrazineyl)-2-oxoethyl)benzoic acid]

melting point: 262 to 265 °C
Structure (SMILES): O=C(Cc1ccc(-c2nnn[nH]2)cc1)N/N=C/c1ccc(NC(=O)c2ccc(Br)o2)cc1 [Compound 13n, (E)-N-(4-((2-(2-(4-(1H-tetrazol-5-yl)phenyl)acetyl)hydrazineylidene)methyl)phenyl)-5-bromofuran-2-carboxamide]

melting point: 277 to 279 °C
Structure (SMILES): O=C(Cc1ccc([N+](=O)[O-])cc1)N/N=C/c1ccc(NC(=O)c2ccc(Br)o2)cc1 [Compound 13c, (E)-5-bromo-N-(4-((2-(2-(4-nitrophenyl)acetyl)hydrazineylidene)methyl)phenyl)furan-2-carboxamide]

IC50 (MMP-13): > 100 µM
melting point: 255 to 258 °C
Structure (SMILES): C/C(=N\NC(=O)Cc1ccc([N+](=O)[O-])cc1)c1ccc(NC(=O)c2ccc(S(N)(=O)=O)o2)cc1 [Compound 13a]

melting point: 243 to 246 °C
Structure (SMILES): C/C(=N\NC(=O)Cc1ccc(-c2nc(C)no2)cc1)c1ccc(NC(=O)c2ccc(CO)o2)cc1 [Compound 13f, (E)-5-(hydroxymethyl)-N-(4-(1-(2-(2-(4-(3-methyl-1,2,4-oxadiazol-5-yl)phenyl)acetyl)hydrazineylidene)ethyl)phenyl)furan-2-carboxamide]

melting point: 232 to 235 °C
Structure (SMILES): Cc1noc(-c2ccc(CC(=O)N/N=C/c3ccc(NC(=O)c4ccc(CO)o4)cc3)cc2)n1 [Compound 13g, (E)-5-(hydroxymethyl)-N-(4-((2-(2-(4-(3-methyl-1,2,4-oxadiazol-5-yl)phenyl)acetyl) hydrazono)methyl)phenyl)furan-2-carboxamide]

IC50 (MMP-13): > 100 µM
melting point: 238 to 241 °C
Structure (SMILES): C/C(=N\NC(=O)Cc1ccc([N+](=O)[O-])cc1)c1ccc(NC(=O)c2ccc(CO)o2)cc1 [Compound 13b, (E)-5-(hydroxymethyl)-N-(4-(1-(2-(2-(4nitrophenyl)acetyl)hydrazineylidene)ethyl)phenyl) furan-2-carboxamide]

IC50 (MMP-14): 63 ± 5.4 µM
IC50 (MMP-1): 91 ± 0.8 µM
IC50 (MMP-2): 99 ± 6 µM
IC50 (MMP-9): 68 ± 3 µM
Structure (SMILES): C/C(=N\NC(=O)Cc1ccc([N+](=O)[O-])cc1)c1ccc(NC(=O)c2ccc(Br)o2)cc1 [Compound 13, (E)-5-bromo-N-(4-(1-(2-(2-(4-nitrophenyl)acetyl)hydrazineylidene)ethyl)phenyl)furan-2-carboxamide]

IC50 (MMP-14): 94 ± 5.5 µM
IC50 (MMP-1): 99 ± 8 µM
IC50 (MMP-2): 60 ± 4.6 µM
IC50 (MMP-9): 66 ± 4.6 µM
Structure (SMILES): N#C/C(=C\c1cn(Cc2ccc(Cl)cc2)c2ccccc12)c1nn(-c2ccccc2)c(N)c1C#N [Compound 11]

melting point: 307 to 310 °C
Structure (SMILES): O=C(Cc1ccc(C(=O)O)cc1)N/N=C/c1ccc(NC(=O)c2ccc(Br)o2)cc1 [Compound 13l, (E)-4-(2-(2-(4-(5-bromofuran-2-carboxamido)benzylidene)hydrazineyl)-2-oxoethyl)benzoic acid]

IC50 (MMP-13): 40 ± 3.5 µM
melting point: 246 to 248 °C
Structure (SMILES): O=C(Cc1ccc([N+](=O)[O-])cc1)N/N=C/c1ccc(NC(=O)c2ccc(CO)o2)cc1 [Compound 13d, (E)-5-(hydroxymethyl)-N-(4-((2-(2-(4-nitrophenyl)acetyl)hydrazineylidene)methyl)phenyl) furan-2-carboxamide]

IC50 (MMP-13): > 100 µM
melting point: 252 to 255 °C
Structure (SMILES): C/C(=N\NC(=O)Cc1ccc(-c2nc(C)no2)cc1)c1ccc(NC(=O)c2ccc(Br)o2)cc1 [Compound 13e, (E)-5-bromo-N-(4-(1-(2-(2-(4-(3-methyl-1,2,4-oxadiazol-5-yl)phenyl)acetyl)hydrazineylidene)ethyl)phenyl)furan-2-carboxamide]

melting point: 232 to 235 °C
Structure (SMILES): C/C(=N\NC(=O)Cc1ccc(C(=O)O)cc1)c1ccc(NC(=O)c2ccc(CO)o2)cc1 [Compound 13i, (E)-4-(2-(2-(1-(4-(5-(hydroxymethyl)furan-2-carboxamido)phenyl)ethylidene)hydrazineyl)-2-oxoethyl)benzoic acid]

IC50 (MMP-14): 67 ± 4.6 µM
IC50 (MMP-1): 75 ± 4 µM
IC50 (MMP-2): 47 ± 1.6 µM
IC50 (MMP-9): 72 ± 4.8 µM
Structure (SMILES): O=C(COC(=O)c1ccccc1Sc1ccc([N+](=O)[O-])cc1)c1ccc(-c2ccccc2)cc1 [Compound 12]
